Target: T1, recombinant mouse NPY5-receptor (mNPY5) (Mus musculus, UniProt O70342)
T1 construct: The full-length cDNA encoding the mouse NPY5 (mNPY5) receptor was amplified from mouse brain cDNA; expressed in transfected cells; membranes used
T1 sequence (O70342 1-466): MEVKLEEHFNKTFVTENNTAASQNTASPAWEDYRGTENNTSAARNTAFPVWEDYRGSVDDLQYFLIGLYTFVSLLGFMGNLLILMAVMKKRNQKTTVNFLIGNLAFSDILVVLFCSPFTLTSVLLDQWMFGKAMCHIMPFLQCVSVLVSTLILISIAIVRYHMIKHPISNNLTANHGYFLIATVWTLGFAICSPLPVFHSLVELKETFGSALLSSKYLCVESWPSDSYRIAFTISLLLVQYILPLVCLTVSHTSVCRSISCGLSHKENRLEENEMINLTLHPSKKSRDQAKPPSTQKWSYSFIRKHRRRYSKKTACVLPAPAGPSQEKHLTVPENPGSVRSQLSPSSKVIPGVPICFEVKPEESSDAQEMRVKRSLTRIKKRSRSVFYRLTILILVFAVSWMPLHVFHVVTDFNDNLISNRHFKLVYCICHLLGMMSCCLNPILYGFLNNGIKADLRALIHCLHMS
Assay: Radioligand competition binding
Settings: displacement of 100 pM [125I]labelled peptide YY (PYY), membranes of HEK293 cells expressing mNPY5, 1 h at 22° C.
From the text: The full-length cDNA encoding the mouse NPY5 (mNPY5) receptor was amplified from mouse brain cDNA using specific primers, designed based on the published sequence, and Pfu DNA-Polymerase (Stratagene). The amplification product was subcloned into the mammalian expression vector pcDNA3 using Eco RI and XhoI restriction sites. Positive clones were sequenced and one clone, encoding the published sequence (see Borowsky B., et al., Regul. Pept., 75-76:45-53 (1998)) was selected for generation of stable cell clones.
Human embryonic kidney 293 (HEK293) (ATCC No. CRL-1573) cells were transfected with 10 μg mNPY5 DNA using the lipofectamine reagent (Gibco BRL) according to the manufacturer's instruction. Two days after transfection, geneticin selection (1 mg/ml) was initiated and several stable clones were isolated. One clone was further used for pharmacological characterization.
Human embryonic kidney 293 cells (HEK293), expressing recombinant mouse NPY5-receptor (mNPY5) were broken by three freeze/thawing cycles in hypotonic Tris buffer (5 mM, pH 7.4, 1 mM MgCl2), homogenized and centrifuged at 72,000×g for 15 min. […] Protein was determined according to the method of Lowry using bovine serum albumine (BSA) as a standard. […]

Row | IC50 [nM] | SMILES
1 | 0.7 | Cc1cc(N2CCCC2)c2ccc(NCC(C)C)cc2n1 [Example 2, isobutyl-(2-methyl-4-pyrrolidin-1-yl-quinolin-7-yl)-amine]
2 | 0.3 | Cc1cc(N2CCCC2)c2ccc(NC(=O)c3ccco3)cc2n1 [Example 54, furan-2-carboxylic acid (2-methyl-4-pyrrolidin-1-yl-quinolin-7-yl)-amide]

Reference: patent US6696467B2, “Quinoline derivatives” (Hoffmann-La Roche Inc., priority 2002, dated 2004)
